Test results as given in paper PMC11277421, “Advancing Cardiovascular Drug Screening Using Human Pluripotent Stem Cell-Derived Cardiomyocytes” (International Journal of Molecular Sciences, 2024).
Entries after “also recorded” stand apart in the source; their conditions may differ.

Experiments:
hPSCs = test: Optimization of CHIR99021 concentration for hPSC-CM generation (morphology, cTnT FACS); assay type: cell-based, human; conditions: tested 0, 6, 9, 12 μM; morphology and cTnT expression on D10
Text: To optimize the culture conditions for CM generation from hPSCs (iPSCs and ESCs), cells were propagated on Matrigel-coated culture plates with maintenance medium, as described in the Section 4. Subsequently, hPSCs underwent differentiation for 10 days, followed by maturation for another 10 days or longer if needed (Figure 1a). For the initial induction of mesodermal differentiation, CHIR99021, a GSK3 inhibitor and Wnt activator, was used. On the first day of hPSC cm generation, hPSCs were treated with CHIR99021 at various concentrations (0, 6, 9, and 12 μM) (Figure 1b). The optimal concentration of CHIR99021 for the efficient generation of hPSC-CMs was determined to be 9 μM based on their morphology and cTnT expression (Figure 1b). For further differentiation into cardiac progenitor cells, Wnt-C59, a small molecule that inhibits Wnt palmitoylation, was added to the differentiation medium from D2 to D4. For late differentiation into contracting CMs from D6 to D10, insulin was added. Contracting CMs were observed between D9 and D11 (Supplementary Figure S1). During differentiation over 10 days, there were changes in the expression levels of CM-related genes (Figure 1c). […] Moreover, GATA4, NKX2.5, TBX5, and ISL1, transcription factors that play key roles in cardiac development, were highly expressed on D10 compared with D0 or D5, indicating the induction of cardiac lineage cells. […]

iPSC-CMs [1] = test: Cardiotoxicity test: spontaneous calcium oscillations (FLIPR, EarlyTox dye); conditions: for EC50: Homo sapiens, iPSC-CM, read-out: EC50 (beating rate, calcium oscillations); for effect on beating rate: iPSC-CMs, concentration-dependent
Method: Spontaneous calcium oscillations in iPSC-CMs were measured using the FLIPR system in the absence or presence of test compounds. […] This approach allowed the evaluation of proarrhythmic effects of drug candidates based on calcium dynamics occurring within the iPSC-CMs.
Figure 4 Utilization of hPSC-CMs as a platform for high-throughput testing of the cardiotoxicity and effectiveness of drugs. Spontaneous calcium oscillations in iPSC-CMs were measured using the FLIPR system in the absence or presence of test compounds. (a,b) Cardiotoxicity test. […] (b) Testing of the compounds known for their adverse effects in humans. […] (c,d) Efficacy test. (c) iPSC-CMs (c1) and ESC-CMs (c2) were treated with 200 nM ATX-II, a late inward sodium current inducer, which produces atrial arrhythmias mimicking the LQT3 phenotype, followed by exposure to a test compound. […] Error bars, mean ± SEM (N = 3). Asterisks, *—statistically significant differences (Student’s t-test; p < 0.05).
Spontaneous calcium transients in contracting CMs were monitored using the FLIPR Tetra® High Throughput Cellular Screening System (Molecular Devices). hPSC-CMs were plated on the Matrigel-coated wells (8 × 10^4 cells per well) of a 96-well plate. Confluency was monitored after 2 days, and the strong synchronous contractions of cells were confirmed prior to the cardiac calcium oscillation assay. Experiments were conducted after 7–10 days of cell culture. The EarlyTox^TM Cardiotoxicity Kit (Molecular Devices) was used; a calcium-sensitive fluorescent dye was added to the plate according to the manufacturer’s instructions and incubated for 2 h at 37 °C. […] Calcium oscillations were measured at 20, 40, and 60 min after treatment. The acquired data were analyzed for beat frequency and peak width at 10% amplitude using ScreenWorks Peak Pro software version 2.0 (Molecular Devices).

ESC-CMs = test: Efficacy test: ATX-II-induced LQT3 phenotype, calcium oscillations in ESC-CMs; assay type: cell-based, human; conditions: for average peak width after ATX-II, reversal by test compound: ESC-CMs pretreated with 200 nM ATX-II
Text: (§1) (a,b) Cardiotoxicity test. […] (c,d) Efficacy test. […] Error bars, mean ± SEM (N = 3).
(§2) For the efficacy test (Figure 4c), iPSC-CMs and ESC-CMs were generated as previously mentioned and used to screen effective compounds for reversing arrhythmia phenotype.

iPSC-CMs [2] = test: Efficacy test: ATX-II-induced LQT3 phenotype, calcium oscillations in iPSC-CMs; assay type: cell-based, human; conditions: for average peak width after ATX-II, reversal by test compound: iPSC-CMs pretreated with 200 nM ATX-II
Text: as §1, §2

## Cc1c[nH]c(-c2cnc(NCCNc3ccc(C#N)cn3)nc2-c2ccc(Cl)cc2Cl)n1 [CHIR99021]
hPSCs
  optimal concentration for efficient generation of hPSC-CMs: 9 µM

## COc1ccc([C@@H]2Sc3ccccc3N(CCN(C)C)C(=O)[C@@H]2OC(C)=O)cc1 [diltiazem]
iPSC-CMs [1]
  EC50: 5.97 µM
  effect on beating rate: increased the beating rate

## CN(CCOc1ccc(NS(C)(=O)=O)cc1)CCc1ccc(NS(C)(=O)=O)cc1 [dofetilide]
iPSC-CMs [1]
  EC50: 0.018 µM
  effect on beating rate: decrease in the beating rate

## O=C(NCC1CCCCN1)c1cc(OCC(F)(F)F)ccc1OCC(F)(F)F (centres unmarked) [flecainide]
iPSC-CMs [1]
  EC50: 17.5 µM
  effect on beating rate: inhibited the beating rates

## CC(C)c1nc(CN(C)C(=O)N[C@H](C(=O)N[C@@H](Cc2ccccc2)C[C@H](O)[C@H](Cc2ccccc2)NC(=O)OCc2cncs2)C(C)C)cs1 [ritonavir]
iPSC-CMs [1]
  EC50: 6.09 µM
  effect on beating rate: inhibited the beating rates

## CCCN1CCCC[C@H]1C(=O)Nc1c(C)cccc1C [ropivacaine]
ESC-CMs
  average peak width after ATX-II, reversal by test compound: restored to the level of untreated control cells; also recorded: significantly reverted the average peak width to the level of untreated control cells
iPSC-CMs [2]
  average peak width after ATX-II, reversal by test compound: restored to the level of untreated control cells; also recorded: significantly reverted the average peak width to the level of untreated control cells

## CCCN(CCc1cccs1)[C@H]1CCc2c(O)cccc2C1 [rotigotine]
ESC-CMs
  average peak width after ATX-II, reversal by test compound: restored to the level of untreated control cells; also recorded: significantly reverted the average peak width to the level of untreated control cells
iPSC-CMs [2]
  average peak width after ATX-II, reversal by test compound: restored to the level of untreated control cells; also recorded: significantly reverted the average peak width to the level of untreated control cells

## COc1ccc(CCN(C)CCCC(C#N)(c2ccc(OC)c(OC)c2)C(C)C)cc1OC (centres unmarked) [verapamil]
iPSC-CMs [1]
  EC50: 0.522 µM
  effect on beating rate: increased the beating rate

## ATX-II: late inward sodium current inducer known to produce atrial arrhythmias, mimicking LQT3
ESC-CMs; 200 nM, ESC-CMs
  average peak width (effect of ATX-II itself): higher average peak widths
iPSC-CMs [2]; 200 nM, iPSC-CMs
  average peak width (effect of ATX-II itself): higher average peak widths
